Experimental data published in BindingDB's records for patent US20240018157 (Schrödinger, 2024).

target: T1, Mucosa-associated lymphoid tissue lymphoma translocation protein 1 (Homo sapiens, UniProt Q9UDY8); experiment: MALT1 Protease Assay 1
T1 sequence (Q9UDY8 whole entry): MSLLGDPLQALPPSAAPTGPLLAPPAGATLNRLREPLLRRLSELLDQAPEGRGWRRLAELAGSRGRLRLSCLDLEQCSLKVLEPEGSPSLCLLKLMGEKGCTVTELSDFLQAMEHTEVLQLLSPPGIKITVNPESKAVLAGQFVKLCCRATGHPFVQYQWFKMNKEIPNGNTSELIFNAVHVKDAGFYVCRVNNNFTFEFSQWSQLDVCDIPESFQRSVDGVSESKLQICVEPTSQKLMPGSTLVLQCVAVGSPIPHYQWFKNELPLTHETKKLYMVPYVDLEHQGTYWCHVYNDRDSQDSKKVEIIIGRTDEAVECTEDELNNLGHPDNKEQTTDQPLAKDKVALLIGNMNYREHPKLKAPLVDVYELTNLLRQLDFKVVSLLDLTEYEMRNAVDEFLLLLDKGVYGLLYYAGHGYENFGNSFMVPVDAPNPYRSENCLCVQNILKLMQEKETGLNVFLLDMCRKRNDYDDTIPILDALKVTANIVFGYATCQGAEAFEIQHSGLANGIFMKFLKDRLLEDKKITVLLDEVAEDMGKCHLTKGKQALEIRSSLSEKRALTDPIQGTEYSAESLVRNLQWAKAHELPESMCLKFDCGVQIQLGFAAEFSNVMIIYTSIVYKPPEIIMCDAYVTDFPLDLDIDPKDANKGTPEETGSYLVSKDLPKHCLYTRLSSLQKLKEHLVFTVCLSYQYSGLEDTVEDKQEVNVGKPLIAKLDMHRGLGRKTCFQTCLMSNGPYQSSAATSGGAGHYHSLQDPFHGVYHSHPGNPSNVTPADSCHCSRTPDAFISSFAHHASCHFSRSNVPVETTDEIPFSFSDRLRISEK
Description: The final assay buffer includes 2 nM of MALT1 full-length protein, 50 μM Ac-LRSR-AMC substrate, 50 mM Tris pH 7.5, 600 mM Sodium Citrate, 1 mM DTT, 1 mM EDTA, and 0.05% BSA in 384-well plate format using black microtiter square well plates (Optiplate 384-F, Perkin Elmer). Test compounds were dissolved in 100% DMSO at stock of 10 mM, with final DMSO concentration 0.1%. Test compounds were pre-incubated with MALT1 protein for 2 h at room temperature. Substrate was added after the pre-incubation and fluorescence signal was measured using Envision at excitation 355 nm and emission 460 nm after 8 hr incubation at RT. Increase in the assay signal was linear over this period and proportional with increase in the enzyme content.

How did the IC50 turn out when `CC1(C)c2c(cnc3cc(Cl)nn23)N(C(=O)Nc2cnc(-n3nccn3)c(Cl)c2)C[C@H]1O` [US20240018157, Example 12] was run?
The IC50 was < 10 nM.

For `CO[C@H]1CN(C(=O)Nc2cnc(-n3nccn3)c(Cl)c2)c2cnc3cc(Cl)nn3c2C1(C)C` [US20240018157, Example 13], which IC50 is on record?
Its IC50 is 10 to 100 nM.

For `CO[C@@H]1CN(C(=O)Nc2cnc(-n3nccn3)c(Cl)c2)c2cnc3cc(Cl)nn3c2C1(C)C` [US20240018157, Example 14], which IC50 is on record?
Its IC50 is 100 to 1000 nM.

With `C[C@]1(C(F)(F)F)CN(C(=O)Nc2cnc(-n3nccn3)c(Cl)c2)c2cnc3cc(Cl)nn3c21` [US20240018157, Example 15] as the molecule, how does the IC50 read?
Its IC50 is 10 to 100 nM.

Which IC50 does the source give for `C[C@@]1(C(F)(F)F)CN(C(=O)Nc2cnc(-n3nccn3)c(Cl)c2)c2cnc3cc(Cl)nn3c21` [US20240018157, Example 16] here?
The IC50 was < 10 nM.

`COc1ccc(NC(=O)N2C[C@@](C)(C(F)(F)F)c3c2cnc2cc(Cl)nn32)cc1Cl` [US20240018157, Example 19] was tested. Which IC50 did it give?
The IC50 was < 10 nM.

For `Cc1cc(NC(=O)N2C[C@@](C)(C(F)(F)F)c3c2cnc2cc(Cl)nn32)cnc1-n1nccn1` [US20240018157, Example 21], which IC50 is on record?
The IC50 was < 10 nM.

Which IC50 does the source give for `Cn1ccc(-c2ncc(NC(=O)N3C[C@@](C)(C(F)(F)F)c4c3cnc3cc(Cl)nn43)cc2Cl)n1` [US20240018157, Example 25] here?
The IC50 was < 10 nM.

Which IC50 does the source give for `C[C@@]1(C(F)(F)F)CN(C(=O)Nc2cnc(-n3cccn3)c(Cl)c2)c2cnc3cc(Cl)nn3c21` [US20240018157, Example 26] here?
The IC50 was < 10 nM.

How did the IC50 turn out when `Cc1cc2ncc3c(n2n1)[C@@](C)(C(F)(F)F)CN3C(=O)Nc1cnc(-n2nccn2)c(Cl)c1` [US20240018157, Example 31] was run?
The IC50 was 10 to 100 nM.

With `C[C@@]1(C(F)(F)F)CN(C(=O)Nc2cnc([C@@H]3CCCO3)c(Cl)c2)c2cnc3cc(Cl)nn3c21` [US20240018157, Example 33] as the molecule, how does the IC50 read?
Its IC50 is 10 to 100 nM.

For `C[C@@]1(C(F)(F)F)CN(C(=O)Nc2cnc([C@H]3CCCO3)c(Cl)c2)c2cnc3cc(Cl)nn3c21` [US20240018157, Example 34], which IC50 is on record?
Its IC50 is < 10 nM.

Which IC50 does the source give for `C[C@]1(C(F)(F)F)CN(C(=O)Nc2cnc(-n3nccn3)c(Cl)c2)c2cnc3cc(F)nn3c21` [US20240018157, Example 38] here?
Its IC50 is 10 to 100 nM.

Which IC50 does the source give for `C[C@@]1(C(F)(F)F)CN(C(=O)Nc2cnc(-n3nccn3)c(C(F)(F)F)c2)c2cnc3cc(Cl)nn3c21` [US20240018157, Example 40] here?
The IC50 was < 10 nM.

How did the IC50 turn out when `C[C@@]1(C(F)(F)F)CN(C(=O)Nc2cnc(-n3nccn3)c(C#N)c2)c2cnc3cc(Cl)nn3c21` [US20240018157, Example 41] was run?
The IC50 was < 10 nM.

For `C[C@@]1(C(F)(F)F)CN(C(=O)Nc2cnc(-n3ccnn3)c(C(F)(F)F)c2)c2cnc3cc(Cl)nn3c21` [US20240018157, Example 44], which IC50 is on record?
The IC50 was < 10 nM.

Which IC50 does the source give for `COCc1ncc(NC(=O)N2C[C@@](C)(C(F)(F)F)c3c2cnc2cc(Cl)nn32)cc1Cl` [US20240018157, Example 45] here?
The IC50 was 10 to 100 nM.

`C[C@@]1(C(F)(F)F)CN(C(=O)Nc2cnc([C@@H]3CCCCO3)c(Cl)c2)c2cnc3cc(Cl)nn3c21` [US20240018157, Example 46] was tested. Which IC50 did it give?
The IC50 was 10 to 100 nM.

For `C[C@@]1(C(F)(F)F)CN(C(=O)Nc2cnc([C@H]3CCCCO3)c(Cl)c2)c2cnc3cc(Cl)nn3c21` [US20240018157, Example 47], which IC50 is on record?
Its IC50 is 10 to 100 nM.

With `C[C@@]1(C(F)(F)F)CN(C(=O)Nc2cnc(-n3cc(O)cn3)c(Cl)c2)c2cnc3cc(Cl)nn3c21` [US20240018157, Example 48] as the molecule, how does the IC50 read?
Its IC50 is < 10 nM.

Which IC50 does the source give for `C[C@@]1(C(F)(F)F)CN(C(=O)Nc2cnc(OC(F)F)c(Cl)c2)c2cnc3cc(Cl)nn3c21` [US20240018157, Example 49] here?
The IC50 was < 10 nM.

How did the IC50 turn out when `C[C@@]1(C(F)(F)F)CN(C(=O)N[C@@H]2CCCC(F)(F)C2)c2cnc3cc(Cl)nn3c21` [US20240018157, Example 54] was run?
The IC50 was > 1000 nM.

target: T1, Mucosa-associated lymphoid tissue lymphoma translocation protein 1; experiment: MALT1 Protease Assay 2
Description: Test compounds were dissolved in 100% DMSO at stock of 10 mM, with final DMSO concentration 0.1%. Test compounds were pre-incubated with MALT1 protein for 2 h at room temperature.

For `C[C@@]1(C(F)(F)F)CN(C(=O)N[C@@H]2CCCC(F)(F)C2)c2cnc3cc(Cl)nn3c21` [US20240018157, Example 54], which IC50 is on record?
Its IC50 is 100 to 1000 nM.
